Measurements from ChEMBL document CHEMBL3507680, “University of Dundee, Gates Library screen for HepG2 cell viability”.

Test: Human HepG2 cell viability assay in 384 well format
Type: toxicity, cell-based
Set-up: dose 125 nL, time 70.5 hour; cytotoxicity at 70.5 h: concentration not given beside the values
Settings: HepG2 cells, read-out: Inhibition

Structure (SMILES)	cytotoxicity at 70.5 h
NCC(c1cccnc1)N1CCOCC1 (stereo not drawn)	-4.26%
Cc1csc(C(Cc2cccs2)NCc2cc3c(cc2C)OCO3)n1 (stereo not drawn)	17.6%
CSCC[C@H]1CN2CCC[C@H]2CN1Cc1coc2ccc(C)cc2c1=O	1.94%
CCn1ccc(C(=O)N2CCCC2c2nnc(-c3scnc3C)o2)n1 (stereo not drawn)	-6.79%
O=C(CCOc1ccccc1F)NC1CCCN(c2ccccn2)C1 (stereo not drawn)	-5.44%
COc1cc(OC)cc(C(=O)N2CCOCC2c2[nH]ncc2C)c1 (stereo not drawn)	18%
CCn1cc(C(=O)N(C)[C@@H]2CC[C@@H](N3CCCC3)[C@@H]2O)c(C)n1	-5.26%
Cc1n[nH]c(C)c1CCC(=O)N1CCC(O)(CN2CCN(C)CC2)C1 (stereo not drawn)	-6.92%
CN(C1CCCN(c2ccccn2)C1)S(C)(=O)=O (stereo not drawn)	-3.73%
Cc1ccn(CCC(=O)N2CCCC2c2nnc(-c3scnc3C)o2)n1 (stereo not drawn)	11.6%
Cc1ncsc1-c1nnc(C2CCCN2C(=O)Cn2cccn2)o1 (stereo not drawn)	3.13%
Cc1ccc(CN2CCCC(c3cnccn3)C2)s1 (stereo not drawn)	-1.38%
COc1ccc2c(c1)C(=O)NC1(CC2)CCN(Cc2ccncc2)C1 (stereo not drawn)	-0.942%
O=C(Cc1ccccc1)NCc1ncc(-c2ccccc2C(=O)O)cn1	-4.73%
Cc1cc(N2CCCC2(C)c2nc(C)cc(C(=O)N(C)C)n2)ncn1 (stereo not drawn)	-2.78%
Cc1ccc(CN2CCC(c3cnccn3)CC2)s1	-3.44%
CC(C)N1CCCC1c1cc(C(F)(F)F)[nH]n1 (stereo not drawn)	0.712%
CN(C)c1cc(C2CCCN(Cc3cnn(C)c3)C2)ccn1 (stereo not drawn)	-0.665%
Fc1ccc(-c2cnc(C3CCNCC3)cn2)cc1	-2.13%
Cc1n[nH]c(C)c1CCC(=O)N1CCC(O)(CN2CCOCC2)C1 (stereo not drawn)	15.2%
CN(C)[C@@H]1CN(C(=O)c2cc3ccc(F)cc3[nH]2)C[C@H]1O	-2.24%
Cn1nccc1CCC(=O)NC1CCCN(c2ccccn2)C1 (stereo not drawn)	-1.31%
CC(C)n1nnc(CC(=O)NCC2(c3cccc(F)c3)CCCC2)n1	15.1%
CC(C)N1CC[C@@](C)(O)[C@H](n2ccc(=O)[nH]c2=O)C1	-7.14%

Structure (SMILES)	cytotoxicity at 70.5 h
Cn1c(=O)[nH]c(=O)c2c1nc1n2CC(c2ccc(Br)cc2)O1 (stereo not drawn)	-3.88%
O=C(NCc1ccco1)c1cc[n+]([O-])cc1	-4.13%
O=C(O)C1CN(c2cncc(Cc3ccccc3F)n2)C1	-6.79%
CC(=O)Nc1cc(CCC2CCN(C(=O)c3ccccn3)CC2)ccn1	-14.2%
CC(=O)N(C)Cc1cncc(C2CCCN2C2CCOCC2)n1 (stereo not drawn)	-9.86%
CS(=O)(=O)N1CCCC(Cc2ccnc(Nc3ccccn3)c2)C1 (stereo not drawn)	-6.97%
CS(=O)(=O)N1CCC(Cc2cnc(Br)cn2)C1 (stereo not drawn)	45.3%
Cc1ccc2[nH]c(C3CCN(CC(N)=O)CC3)nc2c1	9.74%
CNC(=O)c1sc2ccccc2c1C1CCN(c2cc(C)nc(C)n2)C1 (stereo not drawn)	18.1%
Cc1nnc(C2CCN(c3ccccc3)CC2)o1	-9.47%
Oc1cc(C2CCCCN2C2CCCC2)nc(-c2cccnc2)n1 (stereo not drawn)	-7.77%
Cc1cc(C2CCCN(S(=O)(=O)c3cn(C)cn3)C2)ccn1 (stereo not drawn)	-5.97%
CN(C)C(c1ccccn1)[C@H]1CC[C@H](CNC(=O)CC2CCCC2)CC1 (stereo partly drawn)	-7.26%
O=C(O)c1ccccc1-n1cnc(CN2CCc3ccccc3C2)c1	27.7%
Cc1ccc2c(CC(=O)N3C[C@@H](O)[C@H](N(C)C)C3)coc2c1	-5.65%
CN(C)Cc1ccccc1Cn1cncc1-c1cnn(C)c1	-3.97%
CC(=O)N1CCC(c2cncc(N3CCCCCC3)n2)CC1	-17.2%
Cn1ccc(CN2CC(Cc3nccc4cc[nH]c34)C2)n1	-4.79%
CS(=O)(=O)N1CCC(c2cncc(Cl)n2)CC1	27.2%
CC(C)CC(NC(=O)c1ccco1)c1nc2cccnc2n1C (stereo not drawn)	-1.92%
CC[C@@H](Cn1ncc2ccccc2c1=O)NC(=O)c1cnccn1	-4.08%
CC(C(=O)N(Cc1ccccc1)CC(F)(F)F)S(C)(=O)=O (stereo not drawn)	-5.47%
Cc1cnn(-c2ccc(S(N)(=O)=O)cc2F)c1	20%
O=C(Cc1cccnc1)NC1COc2ccccc2C1=O (stereo not drawn)	-14.7%

Structure (SMILES)	cytotoxicity at 70.5 h
COCCN(CCOC)C(=O)c1sc(C)nc1C	-6.51%
CC(C)N(C)CC(=O)N1CCCC(n2ccnc2)C1 (stereo not drawn)	1.97%
CCc1ccccc1CNC(=O)CNCC(F)(F)F	-2.89%
Cc1ccc2c(c1C)OCC2NCc1ccc(C#N)cc1 (stereo not drawn)	16.8%
FC(F)(F)Cn1ccnc1CNCCn1cccn1	-6.92%
CC(SCCNS(=O)(=O)c1cnn(C)c1)c1cccc(F)c1 (stereo not drawn)	-5.51%
c1ccc(-c2nccc(N3CCc4c(ncn4C4CC4)C3)n2)cc1	-17.8%
COC(=O)CC(NC(=O)c1cccc(N2CCCC2=O)c1)c1cccs1 (stereo not drawn)	4.95%
Cn1cnnc1S(=O)(=O)Cc1cc(Cl)c2c(c1)OCO2	7.74%
Cc1csc(CNC(=O)CCCc2cccs2)n1	-1.29%
FC(F)(F)CN1CCC(CNc2nc3ccccc3o2)C1 (stereo not drawn)	1.85%
CC(C)NC(=O)c1cnc(Sc2nccn2C)c(Cl)c1	9.84%
Cc1ccccc1CN(C)C(=O)CCc1nc(-c2nnc[nH]2)no1	8.55%
CC1CCCCN1C(=O)c1cn(-c2ccc(C(F)(F)F)cn2)nn1 (stereo not drawn)	-6.25%
Cc1cc(NC(=O)c2ccc(N3CCOCC3)c(F)c2)[nH]n1	-1.35%
CCC(NC(=O)c1cccc(N2CCCC2=O)c1)c1ccc(OC)cc1 (stereo not drawn)	-4.2%
Cc1cc(C(=O)N(C)S(C)(=O)=O)ccc1F	11.2%
Cc1cc(C(=O)N(C)S(=O)(=O)C(C)C)ccc1F	-4.29%
O=C1CCCCN1CSc1nnnn1-c1ccc(Cl)cc1	-4.94%
CCc1ccc2c(c1)C(CCNC(=O)c1sccc1C)C(=O)N2 (stereo not drawn)	-3.5%
CN(CCCc1ccccc1)C(=O)CCc1nc(-c2nnc[nH]2)no1	-0.426%
CC(C#N)CN(C)Cc1ccc(Cl)c2cccnc12 (stereo not drawn)	-3.13%
Cc1n[nH]cc1CNC(=O)CCCc1cccs1	-3.35%
Cc1ccc(S(=O)(=O)NC(=O)CCc2ccco2)cc1N(C)C	20.1%

Structure (SMILES)	cytotoxicity at 70.5 h
Cc1cc(CN2CCN(Cc3cc(C#N)ccc3F)CC2)no1	0.144%
Cc1cc(CN2CCN(Cc3ccccc3F)CC2)no1	6.67%
O=C(CSc1nnc(N2CCOCC2)s1)NC(=O)Nc1ccccc1	-4.91%
O=C(Nc1cn[nH]c1)N1CCN(CCSc2ccccc2)CC1	1.53%
Cc1cc(C2CCCN2C(=O)c2cnn(C)c2)on1 (stereo not drawn)	14%
COC(=O)c1ccc(C(=O)N2CCc3c(ncn3C3CC3)C2)cc1	-5.37%
O=C(Nc1cccc(F)c1)N1CCC(CO)(Nc2ccccc2)CC1	-5.91%
Cn1cc(-c2nc(C(=O)N3CCCC3c3cnn(C)c3)cs2)cn1 (stereo not drawn)	-5.1%
CS(=O)(=O)c1ccccc1-n1cc(NC(=O)CC2C=CCC2)cn1 (stereo not drawn)	-6.16%
Cc1ccc(C2CCCCCN2C(=O)Nc2cn[nH]c2)o1 (stereo not drawn)	-6.84%
COc1ncccc1C(=O)Nc1cccc(C[S+](C)[O-])c1C (stereo not drawn)	-6.07%
Cc1sc(NC(=O)CN(C)CCOc2cccc(F)c2)c(C)c1C	-2.66%
CCOc1ccccc1C(=O)Nc1cccc(C[S+](C)[O-])c1C (stereo not drawn)	15.1%
O=S(=O)(CCOc1ccc(F)cc1)Nc1cnn(CC(F)F)c1	-6.59%
CCC(CC)C(O)CNC(=O)Cc1c[nH]c2ncccc12 (stereo not drawn)	-4.44%
O=C(Cc1c[nH]c2ncccc12)NCC(O)c1ccsc1 (stereo not drawn)	0.0548%
Cc1ccncc1NS(=O)(=O)c1ccc(Cl)s1	-3.59%
CN(CC(C)(CO)CO)C(=O)Nc1cc(F)cc(F)c1	2.39%
Cc1cc(F)cc(NC(=O)N(C)CC(C)(CO)CO)c1	-1.87%
N#CCCN(CCC#N)Cc1ccc(Br)c2cccnc12	4.54%
CC(C)c1nnc(CN(C)Cc2ccccc2-c2ccccc2)o1	-6.61%
O=C(Nc1cnn(Cc2ccccc2)c1)N1CCN(CCO)CC1	-4.22%
CC(NCC1(N(C)C)CCOCC1)c1ccc(Cl)cc1 (stereo not drawn)	-3.88%
CC(=O)N(C)Cc1cccc(NC(=O)c2cnn(C)c2C)c1	22%

Structure (SMILES)	cytotoxicity at 70.5 h
O=C(c1csc(I)c1)N1CCc2c(ncn2C2CC2)C1	-3.47%
CN(C)c1ncccc1C(=O)N1CCc2c(ncn2C2CC2)C1	-4.54%
CN(C)CCN(CC1CCCO1)C(=O)Cc1cn2ccccc2n1 (stereo not drawn)	17.3%
COc1cc(Cl)c(NC(=O)c2cc3c([nH]c2=O)CCCC3=O)cc1OC	-7.89%
CN(C)c1cc(C(=O)Nc2cccnc2N2CCSCC2)ccn1	-9.49%
CC(C)(C)c1ncc(C(=O)NCc2ccccc2CN2CCCC2)s1	-6.15%
O=C(Nc1cccnc1N1CCSCC1)c1ccc2c(c1)CCC2	-3.24%
Cc1nnc2n1CCN(C(=O)C1CCC(n3cccc3)CC1)C2 (stereo not drawn)	-8.85%
Cn1cc([C@@H]2CN(S(C)(=O)=O)C[C@H]2N)c2ccncc21	19%
CN1CCCCC1c1cncc(Cl)n1 (stereo not drawn)	-0.934%
CC1CCN(c2cncc(CCC3CCCN3)n2)CC1 (stereo not drawn)	-8.58%
Cc1cc(N2CCN(Cc3ccnn3C)CC2)cc(C2CCCN2)n1 (stereo not drawn)	13%
CCN(CC)C(=O)CN1CCc2c(nc(C3CCNCC3)nc2NC)C1	-8.61%
COc1ccc(-c2cc(C3CCNCC3)nc(C)n2)cc1	-6.57%
CCN1CCCc2cc(-c3cncn3C(C)CN3CCOCC3)ccc21 (stereo not drawn)	-4.04%
CCC(CN1CCOCC1)n1cncc1-c1ccc2c(c1)CCCN2C (stereo not drawn)	-6.78%
Cc1ccc(-c2cc(C3CCNCC3)nc(C)n2)cc1	-6.7%
Cc1nccn1CCC1CCNCC1	-4.48%
CN(C)c1ncc(CN2CCC(O)(c3ccccc3F)CC2)cn1	-2.07%
CC(C)N1CCCC1c1cc(CO)[nH]n1 (stereo not drawn)	-4.38%
Cc1cccc(Nc2cc(C)nc(C3CCN(C(C)C)C3)n2)n1 (stereo not drawn)	15.7%
CNc1ccccc1C(=O)N(C)CCc1ccccc1	-5.46%
